Experimental data reported in ChEMBL document CHEMBL1138951 (J Med Chem, 2006).

Legend:
Format in all cases: functional, organism-based
Plasmodium falciparum [1] = assay: Antimalarial activity against Plasmodium falciparum W2
Plasmodium falciparum [2] = assay: Antimalarial activity against Plasmodium falciparum HB3
Plasmodium falciparum [3] = assay: Antimalarial activity against Plasmodium falciparum Dd2

IC90 (Plasmodium falciparum [1]): 802 nM | IC90 (Plasmodium falciparum [2]): 45.7 nM | IC90 (Plasmodium falciparum [3]): 167 nM
Compound: CCN(CC)CCCC(C)Nc1ccnc2cc(Cl)ccc12 (stereo not drawn) [CHLOROQUINE]
